Key:
[1] = system: clonidine-induced depression of locomotor activity (α2 agonist effects); assay: open field test, antagonism of clonidine-induced depression of locomotor and rearing activity; assay type: in vivo, mouse; conditions: 3 mg/kg p.o.; for Open field test % inhibition of clonidine hypomobility, Locomotion / Open field test % inhibition of clonidine hypomobility, Rearing: 1 h before clonidine 150 μg/kg i.p., mouse
Description: This study involved clonidine α2 agonist effects on central control of locomotor activity. Clonidine inhibits locomotor activity and rearing activity in the mouse. In this "open field" test, mice were pretreated with the compounds of the present invention at a dose of 3 mg/kg p.o. (n=4 to 8), one hour prior to intraperitoneal administration of clonidine in solution (150 μg/kg, i.p.). Ninety minutes after the clonidine administration the animals were placed in a rectangular "open field" of 47×53 cm, having a floor divided into 36 boxes of about 8×9 cm. The number of boxes through which the animal goes in 3 minutes and the number of rearing episode were noted.

α2 adrenergic receptor [2] = assay: in vitro binding to alpha2-adrenergic receptors (3H-p-aminoclonidine displacement), rat brain homogenates; conditions: ratio of Ki, ligand PRA (α1) / ligand PAC (α2)
Description: (§1) This method measures the binding to the receptor on rat brain homogenates by marking by means of a specific tritiated ligand placed in competition with the product to be tested. […] The binding to the α2-adrenergic receptors was determined by uses of 0.7 nM of ^3 H-p-aminoclonidine (PAC). The non-specific binding was determined by use of 1,000 nM of phentolamine.
(§2) KD represents the dissociation constant of the ^3 H-ligand in the test mixture
(§3) [L*] represents the concentration of the ^3 H-ligand in the test mixture.

α2 adrenergic receptor [3] = molecular target: T1, α2 adrenergic receptor (Rattus norvegicus, UniProt P22909); assay: as above; conditions: for Ki: ligand 3H-p-aminoclonidine, Cheng and Prusoff, read-out: α2 receptor Ki value, ligand PAC; for inhibition at 0.1 µM: compd. conc. 10^-7 M, ligand 3H-p-aminoclonidine 0.7 nM, rat brain homogenates, read-out: % Inhibition of the specific binding for α2 receptor, Ligand PAC; for affinity for α2 receptors in the in vitro binding assay (in words): rat brain, result in words; for α2-receptor binding affinity for the aminoclonidine ligand relative to the ortho-pyridyl compound (Compound 3): para- and meta-pyridyl compounds versus ortho-pyridyl compound, Table III column 3
T1 construct: rat brain homogenates; from tissue; host or cells: rat brain homogenate
T1 sequence (P22909 1-465): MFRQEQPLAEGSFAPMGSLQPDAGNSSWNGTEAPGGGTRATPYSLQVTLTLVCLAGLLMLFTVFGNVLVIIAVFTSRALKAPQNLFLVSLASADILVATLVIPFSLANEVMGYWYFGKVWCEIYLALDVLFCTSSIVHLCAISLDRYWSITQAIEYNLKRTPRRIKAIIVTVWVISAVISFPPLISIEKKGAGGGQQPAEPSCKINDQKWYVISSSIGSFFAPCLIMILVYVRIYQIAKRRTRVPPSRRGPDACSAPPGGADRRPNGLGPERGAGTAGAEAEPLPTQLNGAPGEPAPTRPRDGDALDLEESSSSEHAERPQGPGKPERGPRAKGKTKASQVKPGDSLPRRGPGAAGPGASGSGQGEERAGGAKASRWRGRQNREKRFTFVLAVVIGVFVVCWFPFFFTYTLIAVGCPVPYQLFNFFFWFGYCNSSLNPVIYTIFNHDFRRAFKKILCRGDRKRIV
Description: as §1, §2, §3

α1 adrenergic receptor = assay: in vitro binding to alpha1-adrenergic receptors (3H-WB4101 or 3H-prazosin displacement), rat brain homogenates; conditions: for % Inhibition of the specific binding for α1 receptor, Ligand WB / % Inhibition of the specific binding for α1 receptor, Ligand PRA: compd. conc. 10^-6 M, rat brain homogenates; for % Inhibition of the specific binding for α1 receptor, Ligand WB: ligand 3H-WB4101 1.6 nM; for % Inhibition of the specific binding for α1 receptor, Ligand PRA: ligand 3H-prazosin 0.2 nM; for Ki: ligand 3H-prazosin, Cheng and Prusoff, read-out: α1 receptor Ki value, ligand PRA
Description: Table II summarizes the binding activities for α1 and α2 adrenergic receptors of the compounds tested. The activity of the compounds according to the invention with respect to binding of the α-adrenergic receptors was determined in vitro according to a method derived from the works of B. R. Rouot, et al., Life Sci., 25, 769 (1979) of D. U'Prichard, et al., Mol. Pharmacol., 13, 454 (1977) and of P. Greengrass, et al., European J. Pharmacol., 55, 323, 1979. This method measures the binding to the receptor on rat brain homogenates by marking by means of a specific tritiated ligand placed in competition with the product to be tested. In the present case the binding, to the α1 -adrenergic receptors was measured by use of 1.6 nM of H-WB 4101 (WB) and 0.2 nM --H--prazosin (PRA). The binding to the α2-adrenergic receptors was determined by uses of 0.7 nM of ^3 H-p-aminoclonidine (PAC). The non-specific binding was determined by use of 1,000 nM of phentolamine. Results are given in Table II with columns 2 and 3 expressed in terms of percentage of inhibition of the specific binding at 10^-7 molar and 10^-6 molar compound concentration.
In Table III, columns 2 and 3 show the pKi values (pKi=-log inhibition constant) for respecively the α1 receptor (ligand ^3 H-prazosin) and the α2 receptor (ligand ^3 H-p-aminoclonidine), calculated according to the equation of Cheng and Prusoff: [formula] wherein: Ki represents the inhibition constant;
IC50 represents the concentration of the test compound providing 50% inhibition of the specific binding;
as §2, §3

[4] = acute toxicity after oral administration to mice (LD50); conditions: mouse, in vivo, mortality recorded for 15 days
Description: The acute toxicity of the compounds of the present invention was studied after oral administration to mice. The products to be tested, suspended in a 1% tragacanth gum mucilage, were administered by means of an intragastric probe to groups of three male mice which had fasted since the preceding day. The doses tested are a function of the effect observed and can vary from 3,000 to 3 mg/kg or less. The mortality was recorded for 15 days. The lethal dose for 50% of the animals (LD50) was calculated according to the method of J. Litchfield and F. Wilcoxon, J. Pharmacol. Exp. Ther., 96, 99 (1949) and expressed in mg/kg. The effect of the products on the behavior of the animals was observed during a 5-to-6 hour period after the treatment indicated above and after 24 hours, using a method derived from that of S. Irwin, described by R. A. Turner, Screening Methods in Pharmacology, Chapter 3, pages 22-34, Academic Press, 1965. If anomalies were noted, the observation was prolonged and smaller doses were tested. The compounds of the present invention have been subjected to a series of in vitro and in vivo tests to determine their biological activity and therapeutic utility. The essential activity of importance resides in the α2 receptor antagonistic activity. […]

α2 adrenergic receptors = molecular target: T2, α2 adrenergic receptors (Cavia porcellus, UniProt Q60474); assay: isolated guinea pig ileum, α2 antagonistic and α2 agonistic activity (clonidine inhibition of electrically induced contractions)
T2 construct: upon isolated organs according to a model described by G. Drews; from tissue; host or cells: isolated guinea pig ileum
T2 sequence (Q60474 1-464): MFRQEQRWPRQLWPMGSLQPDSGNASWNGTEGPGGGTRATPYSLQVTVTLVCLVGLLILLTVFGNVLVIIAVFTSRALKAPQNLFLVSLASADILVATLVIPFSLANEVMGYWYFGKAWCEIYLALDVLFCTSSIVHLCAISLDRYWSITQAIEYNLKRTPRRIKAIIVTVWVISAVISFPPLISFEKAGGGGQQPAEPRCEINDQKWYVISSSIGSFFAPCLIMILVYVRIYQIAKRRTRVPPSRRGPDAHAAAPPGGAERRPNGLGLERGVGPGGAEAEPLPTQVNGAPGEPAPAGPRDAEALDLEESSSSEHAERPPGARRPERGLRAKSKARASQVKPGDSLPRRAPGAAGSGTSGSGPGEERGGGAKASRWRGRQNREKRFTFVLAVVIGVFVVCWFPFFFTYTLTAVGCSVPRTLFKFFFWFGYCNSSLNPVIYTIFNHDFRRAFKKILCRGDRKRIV
Description: In Table IV, columns 3 and 4 summarize the in vitro activities of the compounds evaluated in a guinea pig ileum model. Column 5 summarizes the α2 antagonistic effects of the compounds in an in vivo animal model. The α2 antagonistic and α2 agonistic activities of the compounds according to the invention were determined upon isolated organs according to a model described by G. Drews, Br. J. Pharmaco., 64, 293-300 (1978). This model was based upon the principle that the stimulation of the cholinergic nervous transmissions of the guinea pig ileum causes the liberation of acetyl choline, which in turn causes contractions of the ileum. The stimulation of the α2 -adrenergic receptors inhibits the activity of the cholinergic nerves and consequently reduces all responses due to the latter. Thus the contractions of the ileum induced by electric stimulation are inhibited by clonidine, an α2 agonist, in proportion to the dose. This inhibition was selectively displaced by α2 antagonists and not by α1 antagonists. The method used can be summarized as follows. Three dose-response curves to clonidine were established at an interval of 60 minutes. […] The dose-response curves were calculated as a percentage of the maximum inhibition obtained for the first curve. […] The α2 antagonist activity, expressed in pA2 value shown in column 3 of Table IV, was calculated according to J. M. Van Rossum, Arch. […]

For `c1ccc(C(Cc2c[nH]cn2)c2ccccc2)cc1` [CC, reference compound], the “Open field test % inhibition of clonidine hypomobility, Locomotion” value [1] was 100%, the “Open field test % inhibition of clonidine hypomobility, Rearing” value [1] was 100% and the “Selectivity of α1/α2 affinity (Kiα1/Kiα2)” value (“Selectivity” for short) (α2 adrenergic receptor [2]) was 85. For the same molecule, the Ki (α2 adrenergic receptor [3]) was 0.0078 µM, the “% Inhibition of the specific binding for α1 receptor, Ligand WB” value (“% Inhibition … Ligand WB” below) (α1 adrenergic receptor) was 21% and the “% Inhibition of the specific binding for α1 receptor, Ligand PRA” value (from here on “% Inhibition … Ligand PRA”) (α1 adrenergic receptor) was 27%. The Ki (α1 adrenergic receptor) was 0.66 µM.

For `c1ccc(C(Cc2c[nH]cn2)c2cccnc2)cc1` (stereo not drawn) [Compound 2, 4(5)-[2-phenyl-2-(3-pyridinyl)-ethyl]-imidazole], the LD50 at 360 h [4] was ~175 mg/kg, the “Selectivity” value (α2 adrenergic receptor [2]) was 540 and the inhibition at 0.1 µM (α2 adrenergic receptor [3]) was 94%. For the same molecule, the “affinity for α2 receptors in the in vitro binding assay (in words)” value (α2 adrenergic receptor [3]) was “high affinity for α2 receptors”, the Ki (α2 adrenergic receptor [3]) was 0.0048 µM and the “α2-receptor binding affinity for the aminoclonidine ligand relative to the ortho-pyridyl compound (Compound 3)” value (α2 adrenergic receptor [3]) was “fifteen times higher”. The “% Inhibition … Ligand WB” value (α1 adrenergic receptor) was 7%, the “% Inhibition … Ligand PRA” value (α1 adrenergic receptor) was 10% and the Ki (α1 adrenergic receptor) was 2.6 µM.

In the case of `c1ccc(C(Cc2c[nH]cn2)c2ccccn2)cc1` (stereo not drawn) [Compound 3, 4(5)-[2-phenyl-2-(2-pyridyl)-ethyl]-imidazole], the LD50 at 360 h [4] is reported as 130 mg/kg, the Kb (α2 adrenergic receptors; against clonidine, read-out: α2 antagonist activity pA2 (converted)) is reported as 0.0501 µM and the EC50 (α2 adrenergic receptors; pD2 = -log ED50, 50% of maximum inhibition obtained with clonidine, read-out: α2 agonist activity pD2 (converted)) is reported as 100 µM. For the same molecule, the inhibition at 0.1 µM (α2 adrenergic receptor [3]) was 40%, the Ki (α2 adrenergic receptor [3]) was 0.073 µM and the “% Inhibition … Ligand WB” value (α1 adrenergic receptor) was 0%.

For `c1ccc(C(Cc2c[nH]cn2)c2ccncc2)cc1` (stereo not drawn) [Compound 1, 4(5)-[2-phenyl-2-(4-pyridinyl)-ethyl]-imidazole], the “Open field test % inhibition of clonidine hypomobility, Locomotion” value [1] was 90%, the “Open field test % inhibition of clonidine hypomobility, Rearing” value [1] was 80% and the “antagonism of clonidine-induced depression of locomotor and rearing activity (in words)” value ([1]; mouse open field, result in words) was “very active in this test”. For the same molecule, the “Selectivity” value (α2 adrenergic receptor [2]) was 2900, the inhibition at 0.1 µM (α2 adrenergic receptor [3]) was 91% and the “affinity for α2 receptors in the in vitro binding assay (in words)” value (α2 adrenergic receptor [3]) was “high affinity for α2 receptors”. For the same molecule, the Ki (α2 adrenergic receptor [3]) was 0.0046 µM, the “α2-receptor binding affinity for the aminoclonidine ligand relative to the ortho-pyridyl compound (Compound 3)” value (α2 adrenergic receptor [3]) was “fifteen times higher” and the “% Inhibition … Ligand WB” value (α1 adrenergic receptor) was 2%. The “% Inhibition … Ligand PRA” value (α1 adrenergic receptor) was 14% and the Ki (α1 adrenergic receptor) was 13.4 µM.

From patent US4882343A, “Biarylalkylimidazole derivatives as anti-depressants” (G. D. Searle & Co., priority 1987, dated 1989)
